{
  "source": "DBAASP",
  "experiment_in_all_cases": "≥ marks a high value that may be exact or a test limit, other limits are often not marked, values filed in µg/mL are converted to µM",
  "key": {"Proteus vulgaris": {"test_system": "Proteus vulgaris"}, "[1]": {"test_system": "Staphylococcus aureus KCTC 1621"}, "[2]": {"test_system": "Listeria monocytogenes KCTC 3710"}, "[3]": {"test_system": "Candida albicans KCTC 7270"}, "Pseudomonas aeruginosa": {"test_system": "Pseudomonas aeruginosa"}, "[4]": {"test_system": "Saccharomyces cerevisiae KCTC 7296"}, "Botrytis cinerea": {"test_system": "Botrytis cinerea"}, "Fusarium verticillioides": {"test_system": "Fusarium verticillioides"}, "[5]": {"test_system": "Escherichia coli KCTC 1682"}, "[6]": {"test_system": "Pseudomonas aeruginosa KCTC 1637"}, "[7]": {"test_system": "Staphylococcus epidermidis"}, "[8]": {"test_system": "Salmonella typhimurium KCTC 1926"}, "[9]": {"test_system": "Aspergillus fumigatus KCTC 6145"}, "[10]": {"test_system": "Aspergillus flavus KCTC 9471"}, "[11]": {"test_system": "Staphylococcus epidermidis KCTC 1917"}, "[12]": {"test_system": "Escherichia coli O157:H7 ATCC 43895"}, "[13]": {"test_system": "Trichosporon beigelii KCTC 7707"}, "[14]": {"test_system": "Bacillus subtilis KCTC 1918"}, "Escherichia coli": {"test_system": "Escherichia coli"}},
  "data": [
    {"smiles": "CC[C@H](C)[C@H](NC(=O)[C@H](CCCCN)NC(=O)[C@H](CO)NC(=O)[C@H](Cc1ccccc1)NC(=O)[C@H](CC(C)C)NC(=O)[C@H](CCCCN)NC(=O)[C@H](CCC(=O)O)NC(=O)[C@H](CC(C)C)NC(=O)[C@H](CCCN=C(N)N)NC(=O)[C@H](CCCCN)NC(=O)[C@H](Cc1ccccc1)NC(=O)[C@@H](NC(=O)[C@H](CCCCN)NC(=O)[C@H](CCCCN)NC(=O)[C@H](C)N)C(C)C)C(=O)N[C@@H](CCC(N)=O)C(=O)N[C@@H](CC(N)=O)C(=O)N[C@@H](CC(=O)O)C(=O)N[C@@H](CCCCN)C(N)=O", "note": "[AKKVFKRLEKLFSKIQNDK]", "values": [
      {"measurement": "MIC", "setting": "Proteus vulgaris", "result": 4.42, "unit": "µM"},
      {"measurement": "MIC", "setting": "[1]", "result": 12.5, "unit": "µM"},
      {"measurement": "MIC", "setting": "[2]", "result": 6.25, "unit": "µM"},
      {"measurement": "MIC", "setting": "[3]", "result": 25, "unit": "µM"},
      {"measurement": "MIC", "setting": "Pseudomonas aeruginosa", "result": 6.25, "unit": "µM"},
      {"measurement": "MIC", "setting": "[4]", "result": 25, "unit": "µM"},
      {"measurement": "MIC", "setting": "Botrytis cinerea", "result": 12.5, "unit": "µM"},
      {"measurement": "MIC", "setting": "Fusarium verticillioides", "result": 25, "unit": "µM"},
      {"measurement": "MIC", "setting": "[5]", "result": 12.5, "unit": "µM"},
      {"measurement": "MIC", "setting": "[6]", "result": 1.56, "unit": "µM"},
      {"measurement": "MIC", "setting": "[7]", "result": 6.25, "unit": "µM"},
      {"measurement": "MIC", "setting": "[8]", "result": 1.56, "unit": "µM"},
      {"measurement": "MIC", "setting": "[9]", "result": "≥ 50", "unit": "µM"},
      {"measurement": "MIC", "setting": "[10]", "result": "≥ 50", "unit": "µM"},
      {"measurement": "MIC", "setting": "[11]", "result": 3.12, "unit": "µM"},
      {"measurement": "MIC", "setting": "[12]", "result": 12.5, "unit": "µM"},
      {"measurement": "MIC", "setting": "[13]", "result": 3.13, "unit": "µM"},
      {"measurement": "MIC", "setting": "[14]", "result": 3.13, "unit": "µM"},
      {"measurement": "MIC", "setting": "Escherichia coli", "result": 3.13, "unit": "µM"}
    ]}
  ]
}
